In the SangsterLogP compilation:

Test: not given

**Q.** For `CC(=O)/C=C/[C@H]1C(C)=CCCC1(C)C`, which logP is on record?
**A.** Its logP is 3.85.

**Q.** For `CC12CCC(CC1)C(C)(C)O2`, which logP is on record?
**A.** The logP was 2.84.

**Q.** With `CC(C)=C1CC[C@@H](C)CC1=O` as the molecule, how does the logP read?
**A.** The logP was 3.08.

**Q.** With `CC(C)=CCC[C@@H](C)CC=O` as the molecule, how does the logP read?
**A.** The logP was 3.83.

**Q.** With `C=C(C)[C@H]1CC[C@H](C)[C@@H](O)C1` as the molecule, how does the logP read?
**A.** Its logP is 3.21.

**Q.** Which logP does the source give for `CC1=CC(=O)[C@H]2CC1C2(C)C` here?
**A.** Its logP is 2.23.

**Q.** Which logP does the source give for `CC1(C)[C@H]2CC=C(CO)[C@@H]1C2` here?
**A.** The logP was 3.22.

**Q.** For `CC1=CCC2[C@H](C1=O)C2(C)C` (some centres not stated), which logP is on record?
**A.** The logP was 2.42.

**Q.** With `CC1=C[C@H](O)[C@H]2C[C@@H]1C2(C)C` as the molecule, how does the logP read?
**A.** Its logP is 3.16.

**Q.** For `CC1=CC2C(CC1)C2(C)C` (configuration not stated), which logP is on record?
**A.** The logP was 4.44.

**Q.** For `Cc1ccc(C(C)C)cc1O`, which logP is on record?
**A.** Its logP is 3.49.

**Q.** For `CC1(C)[C@@H]2CC=C(C=O)[C@H]1C2`, which logP is on record?
**A.** The logP was 2.98.

**Q.** With `CC1=CCC(=C(C)C)CC1` as the molecule, how does the logP read?
**A.** Its logP is 4.24.

**Q.** For `CC(=O)OC1C[C@H](C)CCC1C(C)C` (some centres not stated), which logP is on record?
**A.** The logP was 4.

**Q.** Which logP does the source give for `CC12CCC(CC1=O)C2(C)C` (configuration not stated) here?
**A.** The logP was 2.74.

**Q.** For `CC(C)C12CCC(C)(CC1)O2`, which logP is on record?
**A.** Its logP is 2.97.

**Q.** For `C/C=C/c1ccc(O)c(OC)c1`, which logP is on record?
**A.** The logP was 3.04.

**Q.** Which logP does the source give for `C=C(C)C1CCC2(C)OC2C1` (configuration not stated) here?
**A.** The logP was 3.2.

**Q.** For `C=C(C)[C@@H]1CC=C(CO)CC1`, which logP is on record?
**A.** Its logP is 3.17.

**Q.** For `CC(=O)C=CC1=C(C)CCCC1(C)C`, which logP is on record?
**A.** Its logP is 3.84.

**Q.** With `CC1(C)[C@H]2CC[C@@H](CO)[C@@H]1C2` as the molecule, how does the logP read?
**A.** The logP was 3.41.

**Q.** For `CC1=CC=C(C(C)C)CC1`, which logP is on record?
**A.** Its logP is 4.25.

**Q.** With `CC(C)[C@@H]1CC[C@@H](C)CC1=O` as the molecule, how does the logP read?
**A.** The logP was 3.05.

**Q.** For `CC1(C)C2CCC(CN)C1C2` (configuration not stated), which logP is on record?
**A.** The logP was 2.05.

**Q.** Which logP does the source give for `C=CCc1ccc(OC)c(OC)c1` here?
**A.** Its logP is 3.45.

**Q.** For `CC(=O)OC/C=C(\C)CCC=C(C)C`, which logP is on record?
**A.** The logP was 4.04.

**Q.** Which logP does the source give for `CC1=CCC2C(C1)C2(C)C` (configuration not stated) here?
**A.** The logP was 4.38.

**Q.** For `CC1=CC(=O)C(C(C)C)CC1` (configuration not stated), which logP is on record?
**A.** Its logP is 2.85.

**Q.** For `C=CC(C)(CCC=C(C)C)OC(C)=O` (configuration not stated), which logP is on record?
**A.** Its logP is 3.93.

**Q.** Which logP does the source give for `CC12CC[C@@H](C1)C(C)(C)C2=O` (stereo in doubt) here?
**A.** The logP was 3.17.

**Q.** Which logP does the source give for `C=CC1(C)CCC(C(C)(C)O)O1` (configuration not stated) here?
**A.** The logP was 2.43.

**Q.** For `CC1(C)C2CCC1(C)C(O)C2` (configuration not stated), which logP is on record?
**A.** Its logP is 3.01.

**Q.** For `C=C(C)[C@@H]1CC=C(C=O)CC1`, which logP is on record?
**A.** The logP was 3.13.

**Q.** With `CC(C)=CCC/C(C)=C/CO` as the molecule, how does the logP read?
**A.** Its logP is 3.56.

Test: method code SF-GLC, from DOI: 10.1016/s0021-9673(99)01009-2, PMID: 10669289

**Q.** Which logP does the source give for `CC1=CCC(C(C)(C)O)CC1` (configuration not stated) here?
**A.** The logP was 3.28.

**Q.** With `CC1=CCC(C(C)(C)O)CC1O` (configuration not stated) as the molecule, how does the logP read?
**A.** The logP was 1.11.

**Q.** Which logP does the source give for `C=C(C)C1CC=C(C)C(O)C1` (configuration not stated) here?
**A.** Its logP is 2.85.

**Q.** Which logP does the source give for `C=C(C)[C@H]1CC=C(C)C(=O)C1` here?
**A.** The logP was 2.71.

**Q.** Which logP does the source give for `C=C(C)C1CCC(C)C(=O)C1` (configuration not stated) here?
**A.** Its logP is 2.85.

**Q.** Which logP does the source give for `CC1=CCC2C[C@H]1C2(C)C` here?
**A.** Its logP is 4.44.

**Q.** For `CC(=O)OC(C)(C)C1C=CC(C)CC1` (configuration not stated), which logP is on record?
**A.** Its logP is 3.96.

**Q.** For `CC1=CCC(O)(C(C)C)CC1` (configuration not stated), which logP is on record?
**A.** The logP was 2.8.
